# Measurements: ChEMBL document CHEMBL4699482, “Synthesis and SAR of a series of mGlu NAMs based on an ethyl-8-methoxy-4-(4-phenylpiperazin-1-yl)quinoline carboxylate core” (Bioorg Med Chem Lett, 2020)
# Key:
# [1] = biological target: Metabotropic glutamate receptor 7 (Rattus norvegicus) (UniProt P35400); test: (§1) Negative allosteric modulation of rat mGlu7 receptor expressed in HEK cells co-expressing Galpha15 assessed as minimum L-AP4 response by measuring reduction in calcium mobilization incubated for 142 secs prior to glutamate addition and after 120 secs treated with L-AP4 and measured after 40 secs by Fluo-4 AM dye based fluorescence assay relative to L-AP4; format: functional, cell-based; design: scale not given: the % may be the effect or the level left; settings: time 302.0 sec
# [2] = biological target: Metabotropic glutamate receptor 7 (Rattus norvegicus, UniProt P35400); test: as §1, with “as” for “as minimum L-AP4 response by measuring”, “assay” for “assay relative to L-AP4”; format: functional, cell-based
# [3] = Fraction unbound in mouse brain homogenate at 5 uM incubated for 6 hrs by equilibrium dialysis method; format: ADME, tissue-based
# [4] = Fraction unbound in rat brain homogenate at 5 uM incubated for 6 hrs by equilibrium dialysis method; format: ADME, tissue-based
# [5] = Fraction unbound in mouse plasma at 5 uM incubated for 4 hrs by equilibrium dialysis method; format: ADME, cell-free
# [6] = Fraction unbound in rat plasma at 5 uM incubated for 4 hrs by equilibrium dialysis method; format: ADME, cell-free
# [7] = Fraction unbound in human plasma at 5 uM incubated for 4 hrs by equilibrium dialysis method; format: ADME, cell-free
# [8] = biological target: Metabotropic glutamate receptor 8 (Homo sapiens, UniProt O00222); test: Negative allosteric modulation of mGlu8 receptor (unknown origin)
# [9] = biological target: Metabotropic glutamate receptor 4 (Homo sapiens, UniProt Q14833); test: Negative allosteric modulation of mGlu4 receptor (unknown origin)
# [10] = filed as negative allosteric modulator
# Sequence of Metabotropic glutamate receptor 7 (P35400 whole entry): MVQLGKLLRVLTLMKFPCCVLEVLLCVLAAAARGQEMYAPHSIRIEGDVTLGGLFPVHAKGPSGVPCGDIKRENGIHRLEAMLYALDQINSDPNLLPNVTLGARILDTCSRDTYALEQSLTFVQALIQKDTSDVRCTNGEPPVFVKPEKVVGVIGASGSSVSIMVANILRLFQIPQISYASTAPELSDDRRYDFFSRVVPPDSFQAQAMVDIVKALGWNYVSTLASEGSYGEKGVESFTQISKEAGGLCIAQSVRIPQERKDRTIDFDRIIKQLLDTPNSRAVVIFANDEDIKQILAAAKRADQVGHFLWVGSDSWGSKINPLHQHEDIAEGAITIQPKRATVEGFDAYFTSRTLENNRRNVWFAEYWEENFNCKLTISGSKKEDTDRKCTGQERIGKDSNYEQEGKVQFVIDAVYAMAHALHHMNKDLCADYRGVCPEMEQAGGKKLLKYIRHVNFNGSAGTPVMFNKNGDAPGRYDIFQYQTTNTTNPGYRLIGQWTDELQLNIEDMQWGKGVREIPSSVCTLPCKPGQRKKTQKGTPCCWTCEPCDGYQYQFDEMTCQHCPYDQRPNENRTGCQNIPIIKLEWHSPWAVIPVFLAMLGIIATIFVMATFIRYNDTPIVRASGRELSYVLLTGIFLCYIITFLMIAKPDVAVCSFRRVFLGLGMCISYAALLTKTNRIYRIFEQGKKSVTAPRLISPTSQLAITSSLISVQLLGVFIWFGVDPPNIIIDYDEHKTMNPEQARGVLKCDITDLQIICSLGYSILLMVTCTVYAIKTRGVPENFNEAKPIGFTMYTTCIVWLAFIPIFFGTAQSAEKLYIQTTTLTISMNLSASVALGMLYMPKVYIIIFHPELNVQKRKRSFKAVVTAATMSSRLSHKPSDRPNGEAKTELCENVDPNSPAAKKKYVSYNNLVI
# Sequence of Metabotropic glutamate receptor 7 (Rattus norvegicus) (P35400 whole entry): as above
# Sequence of Metabotropic glutamate receptor 4 (Q14833 whole entry): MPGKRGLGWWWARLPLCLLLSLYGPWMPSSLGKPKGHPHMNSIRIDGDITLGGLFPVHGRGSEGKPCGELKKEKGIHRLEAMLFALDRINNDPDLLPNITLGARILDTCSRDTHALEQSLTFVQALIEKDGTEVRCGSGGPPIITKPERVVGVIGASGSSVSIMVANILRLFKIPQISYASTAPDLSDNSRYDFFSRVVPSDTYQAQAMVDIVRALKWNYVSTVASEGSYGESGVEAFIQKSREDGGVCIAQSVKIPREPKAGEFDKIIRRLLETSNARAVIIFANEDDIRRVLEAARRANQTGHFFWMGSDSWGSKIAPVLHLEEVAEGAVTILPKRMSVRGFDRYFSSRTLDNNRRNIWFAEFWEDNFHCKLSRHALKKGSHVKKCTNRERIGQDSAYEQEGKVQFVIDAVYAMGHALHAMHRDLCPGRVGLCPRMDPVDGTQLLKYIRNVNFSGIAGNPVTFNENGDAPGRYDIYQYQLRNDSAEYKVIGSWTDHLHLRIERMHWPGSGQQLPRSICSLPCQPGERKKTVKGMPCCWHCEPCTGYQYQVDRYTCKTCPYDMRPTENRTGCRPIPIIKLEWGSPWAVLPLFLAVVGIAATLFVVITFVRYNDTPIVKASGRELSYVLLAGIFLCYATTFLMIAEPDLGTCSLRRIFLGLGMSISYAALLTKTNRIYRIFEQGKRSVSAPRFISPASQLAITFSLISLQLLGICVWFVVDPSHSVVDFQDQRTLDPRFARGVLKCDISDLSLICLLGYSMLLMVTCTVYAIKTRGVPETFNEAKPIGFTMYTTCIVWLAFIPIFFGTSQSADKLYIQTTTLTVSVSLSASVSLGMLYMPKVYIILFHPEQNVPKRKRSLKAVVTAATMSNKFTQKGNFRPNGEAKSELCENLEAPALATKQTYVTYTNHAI
# Sequence of Metabotropic glutamate receptor 8 (O00222 whole entry): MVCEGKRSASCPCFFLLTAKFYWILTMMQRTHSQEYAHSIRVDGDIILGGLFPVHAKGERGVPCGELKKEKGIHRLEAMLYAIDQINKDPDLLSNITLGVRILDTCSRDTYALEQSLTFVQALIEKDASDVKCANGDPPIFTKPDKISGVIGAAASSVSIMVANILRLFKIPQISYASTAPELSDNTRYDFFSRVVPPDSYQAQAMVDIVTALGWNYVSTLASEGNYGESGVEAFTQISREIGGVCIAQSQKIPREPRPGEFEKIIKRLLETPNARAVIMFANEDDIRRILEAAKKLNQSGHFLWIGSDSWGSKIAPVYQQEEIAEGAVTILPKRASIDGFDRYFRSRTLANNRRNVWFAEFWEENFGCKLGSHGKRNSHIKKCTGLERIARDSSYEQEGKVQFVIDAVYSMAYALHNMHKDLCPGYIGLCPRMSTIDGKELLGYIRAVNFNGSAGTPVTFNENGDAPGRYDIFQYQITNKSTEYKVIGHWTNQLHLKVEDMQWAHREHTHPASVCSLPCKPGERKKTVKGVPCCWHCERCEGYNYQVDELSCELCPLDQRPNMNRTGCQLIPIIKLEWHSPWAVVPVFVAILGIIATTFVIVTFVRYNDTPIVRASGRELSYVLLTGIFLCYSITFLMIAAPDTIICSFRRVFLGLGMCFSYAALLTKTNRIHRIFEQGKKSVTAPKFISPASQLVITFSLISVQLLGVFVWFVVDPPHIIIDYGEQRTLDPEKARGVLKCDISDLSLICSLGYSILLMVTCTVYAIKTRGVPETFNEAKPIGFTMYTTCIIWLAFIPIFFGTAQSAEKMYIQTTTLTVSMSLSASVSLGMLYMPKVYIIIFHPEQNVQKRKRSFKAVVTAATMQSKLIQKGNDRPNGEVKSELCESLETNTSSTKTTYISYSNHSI
"Activity [1, 10]",IC50 [2],Compound,also measured
41%,> 10000 nM,CCOC(=O)c1cnc2c(OC)cccc2c1N1CCN(c2ccccc2C)CC1,
3.6%,350 nM,CCOC(=O)c1cnc2c(OC)cccc2c1-c1cnc(-c2ccccc2OC)c(OC)c1,Fu [3]: 0.04; Fu [4]: 0.04; Fu [5]: 0.01; Fu [6]: 0.01
8.7%,5100 nM,CCOC(=O)c1cnc2c(OC)cccc2c1N1CCN(c2ccccc2OCC)CC1,
,> 30000 nM,CCOC(=O)c1cnc2c(OC)cccc2c1N1CCN(c2ccccc2Cl)CC1,
5%,810 nM,CCOC(=O)c1cnc2c(OC)cc(OC)cc2c1-c1ccc(-c2ccccc2OCC)nc1,
5.8%,1500 nM,CCOC(=O)c1cnc2c(OC)cccc2c1-c1ccc(-c2ccccc2OC(C)C)nc1,
,> 30000 nM,CCOC(=O)c1cnc2c(OC)cccc2c1N1CC2(CN(c3ccccc3OC)C2)C1,
41%,> 10000 nM,CCOC(=O)c1cnc2c(OC)cccc2c1C1CC2CC(C1)N2c1ccccc1OC (stereo unspecified),
12%,2400 nM,CCOC(=O)c1cnc2c(OC)cccc2c1-c1cnc(-c2ccccc2OC)nc1,
6.5%,1200 nM,CCOC(=O)c1cnc2c(OC)cccc2c1-c1ccn(Cc2ccccc2OC)c1,
11%,3000 nM,CCOC(=O)c1cnc2c(OC)cccc2c1N1CCN(c2nccnc2OC)CC1,
26%,4500 nM,CCOC(=O)c1cnc2sccc2c1N1CCN(c2ccccc2OC)CC1,
4.7%,510 nM,CCOC(=O)c1cnc2c(OC)cccc2c1N1CCN(c2ccccc2SC)CC1,
24%,4500 nM,CCOC(=O)c1cnc2ccsc2c1N1CCN(c2ccccc2OC)CC1,
11%,800 nM,CCOC(=O)c1cnc2c(OC)cccc2c1N1CCN(c2c(OC)cccc2OC)CC1,
15%,2100 nM,CCOC(=O)c1cnc2c(OC)cccc2c1N1CCN(c2cc(F)ccc2OC)CC1,
,> 30000 nM,CCOC(=O)c1cnc2c(OC)cccc2c1N1CCN(c2cccs2)CC1,
9.6%,4400 nM,CCOC(=O)c1cnc2c(OC)cccc2c1N(C)CCN(C)c1ccccc1OC,
5.6%,647 nM,CCOC(=O)c1cnc2c(OC)cccc2c1N1CCN(c2ccccc2OC)CC1,Fu [7]: 0.018; IC50 [8]: > 30000 nM; IC50 [9]: > 30000 nM; Fu [6]: 0.016
3.5%,880 nM,CCOC(=O)c1cnc2c(OC)cc(OC)cc2c1-c1ccc(-c2ccccc2OC)nc1,
,> 10000 nM,CCOC(=O)c1cnc2c(OC)cccc2c1N1CC2CN(c3ccccc3OC)CC2C1 (stereo unspecified),Activity [1]: 57%
3.9%,670 nM,CCOC(=O)c1cnc2c(OC)cc(OC)cc2c1N1CCN(c2ccccc2OC)CC1,

"Activity [1, 10]",IC50 [2],Compound,also measured
6.8%,2800 nM,CCOC(=O)c1cnc2c(OC)cccc2c1-c1ccc(-c2ccccc2OC)cn1,
6.3%,370 nM,CCOC(=O)c1cnc2c(OC)cccc2c1-c1ccc(-c2ccccc2OCC)nc1,
,> 30000 nM,CCOC(=O)c1cnc2c(OC)cccc2c1N1CCN(c2ccnn2C)CC1,
9.6%,3600 nM,CCOC(=O)c1cnc2c(OC)cccc2c1C1=CCN(c2ccccc2OC)CC1,
,> 30000 nM,CCOC(=O)c1ccc2c(OC)cccc2c1N1CCN(c2ccccc2OC)CC1,
14%,4200 nM,CCOC(=O)c1cnc2c(OC)cccc2c1N1CCN(c2ccccc2C#N)CC1,
6.5%,600 nM,CCOC(=O)c1cnc2c(OC)cccc2c1-c1ccc(-c2ccccc2OC)nc1,
13%,4200 nM,CCOC(=O)c1cnccc1N1CCN(c2ccccc2OC)CC1,
,> 30000 nM,CCOC(=O)c1cnc2c(OC)cccc2c1N1CCN(c2cncs2)CC1,
9%,1900 nM,CCOC(=O)c1cnc2c(OC)cccc2c1N1CCN(c2ccc(OC)cc2OC)CC1,
8.6%,1300 nM,CCOC(=O)c1cnc2c(OC)cccc2c1N1CCN(c2ccccc2OC)C(C)C1 (racemic),
6.1%,1500 nM,CCOC(=O)c1cnc2c(OC)cccc2c1N1CCN(c2ccccc2OC)CC1C (racemic),
,> 30000 nM,CCOC(=O)c1cnc2ccccc2c1N1CCN(c2ccccc2OC)CC1,
5.1%,540 nM,CCOC(=O)c1cnc2c(OC)cccc2c1-c1cnc(-c2ccccc2OC)cn1,
4.2%,2900 nM,CCOC(=O)c1cnc2c(OC)cccc2c1-c1ccc(-c2ccccc2OC)cc1,Fu [7]: < 0.001; Fu [6]: < 0.001
10%,1500 nM,CCOC(=O)c1cnc2c(OC)cccc2c1N1CCN(c2cccnc2OC)CC1,
5.6%,410 nM,CCOC(=O)c1cnc2c(OC)cccc2c1-c1ccc(-c2ccccc2SC)nc1,
41%,> 10000 nM,CCOC(=O)c1cnc2c(OC)cccc2c1C1CCN(c2ccccc2OC)CC1,
12%,6100 nM,CCOC(=O)c1cnc2c(OC)cccc2c1N1CCN(c2ccccc2F)CC1,
6.5%,2300 nM,CCOC(=O)c1cnc2c(OC)cccc2c1N1CCN(c2ccccc2OC(C)C)CC1,
,> 30000 nM,CCOC(=O)c1cnc2c(OC)cccc2c1N1CCN(c2ccccc2OC(F)(F)F)CC1,
24%,2100 nM,CCOC(=O)c1cnc2c(OC)cccc2c1-c1cc(F)c(-c2ccccc2OC)nc1OC,

Compound,"Activity [1, 10]",IC50 [2],also measured
CCOC(=O)c1cnc2c(OC)cccc2c1C1C2CC1CN(c1ccccc1OC)C2 (stereo unspecified),,> 30000 nM,
